Assay results taken from patent publication US20220220152A1, “BIVALENT ANTAGONISTS OF INHIBITORS OF APOPTOSIS PROTEINS” (Hepagene Therapeutics (HK) Limited, priority 2019, published 2022).

Experiments:
XIAP-BIR3 = target: T1, XIAP-BIR3 (Homo sapiens, UniProt P98170); experiment: XIAP-BIR3 fluorescence polarization binding assay; conditions: FP, probe AbuRPFK-5FAM (SM5F) 5 nM, XIAP-BIR3 40 nM, 60 min at 25° C.
T1 construct: XIAP-BIR3; purchased Reaction Biology APT-11-374
From the text: (§1) IAPs are one main cause of cancer development and may result from overexpression of anti-apoptotic proteins. This protocol establishes three binding assays for […] Bir3 domain, cIAP1 and cIAP2 using FP (fluorescence polariation) technology. The fluorescence probe used is a synthetic peptide conjugated to 5-carboxyfluorescein (AbuRPFK-5FAM). The fluorescence polarization value (mP) was detected by Envision, which was used to reflect the binding degree of protein and fluorescent marker.
(§2) • a. Prepare 100 times of the final cpd concentration in appropriate tube and transfer 5 uL cpd to 45 μL 1× reaction buffer with 10% DMSO • b. The final reference cpd concentration is 10000, 3333.3, 1111.1, 370.4, 123.4, 41.2, 13.7, 4.57, 1.52, 0.51, 0.17 and 0 nM. So the 100 times of the concentration is 1000, 333.3, 111.1, 37.04, 12.34, 4.12, […], 0.15, 0.05, 0.017 and 0 μM. The final test cpds concentration is 3333.3, 1111.1, 370.4, 123.4, 41.2, 13.7, 4.57, 1.52, 0.51, 0.17, 0.057 and 0 nM. So the 100 times of the concentration is 333.3, 111.1, 37.04, 12.34, 4.12, […], 0.15, 0.05, 0.017, 0.0057 and […] • c. Add 8 μL/well each dose enzyme to 384 wen microplate (ProxiPlate-384 F Plus, 6008260) using multichannel pipette, prepared in Table 3. • d. Centrifuge at 1000 rpm • e. Add 2 μL/well cpd to 384 well microplate (ProxiPlate-384 F Plus, 6008260) using multichannel pipette, prepared in step a). • f. Centrifuge at 1000 rpm RT, 15 min. • g Start the assay by adding 10 uL/well substrate (prepared in Table 4) to the same 384 wen microplate using multichannel pipette. • h. Centrifuge at 1000 rpm. • i. Cover the assay plate and incubate for 60 min at 25° C. • j. Read on Envision 2104 for mP and plot the IC50s with mP values. • k. Data analysis: IC50s were determined based on a non-linear regression analysis of data collected.

cIAP1-BIR3 = target: T2, cIAP1-BIR3 (Homo sapiens, UniProt Q13490); experiment: cIAP1-BIR3 fluorescence polarization binding assay; conditions: FP, probe AbuRPFK-5FAM (SM5F) 5 nM, cIAP1-BIR3 15 nM, 60 min at 25° C.
T2 construct: cIAP1-BIR3; purchased Reaction Biology APT-11-370
T2 sequence (Q13490 253-363 limits assumed): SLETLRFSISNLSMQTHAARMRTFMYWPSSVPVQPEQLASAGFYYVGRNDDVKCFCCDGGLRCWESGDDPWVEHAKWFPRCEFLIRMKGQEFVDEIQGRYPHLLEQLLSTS
From the text: as §1, §2

cIAP2-BIR3 = target: T3, cIAP2-BIR3 (Homo sapiens, UniProt Q13489); experiment: cIAP2-BIR3 fluorescence polarization binding assay; conditions: FP, probe AbuRPFK-5FAM (SM5F) 5 nM, cIAP2-BIR3 80 nM, 60 min at 25° C.
T3 construct: cIAP2-BIR3; purchased Reaction Biology APT-11-372
T3 sequence (Q13489 238-349 limits assumed): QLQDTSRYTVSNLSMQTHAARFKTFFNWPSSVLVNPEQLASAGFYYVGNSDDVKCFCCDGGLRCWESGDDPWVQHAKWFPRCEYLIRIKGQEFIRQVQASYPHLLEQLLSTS
From the text: as §1, §2

T1 sequence (P98170 241-356 limits assumed): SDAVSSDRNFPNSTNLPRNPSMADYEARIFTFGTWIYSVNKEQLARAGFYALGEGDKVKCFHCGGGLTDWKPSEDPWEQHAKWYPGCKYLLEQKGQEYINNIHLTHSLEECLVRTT

Compound	IC50 (XIAP-BIR3) [nM]	IC50 (cIAP1-BIR3) [nM]	IC50 (cIAP2-BIR3) [nM]
CN[C@@H](C)C(=O)N[C@H](C(=O)N1CCC[C@H]1C(=O)N[C@@H]1CCCc2c(OCc3ccc(COc4cccc5c4CCC[C@H]5NC(=O)[C@@H]4CCCN4C(=O)[C@@H](NC(=O)[C@H](C)NC)C4CCCCC4)cc3)cccc21)C1CCCCC1 [Compound I-F, (2S)-1-[(2S)-2-cyclohexyl-2-[(2S)-2-(methylamino)propanamido]acetyl]-N-[(1R)-5-[[4-([[(5R)-5-[(2S)-1-[(2S)-2-cyclohexyl-2-[(2S)-2-(methylamino)propanamido]acetyl]pyrolidine-2-amido]-5,6,7,8-tetrahydronaphthalen-1-yl]oxy]methyl)phenyl]methoxy]-1,2,3,4-tetrahydronaphthalen-1-yl]pyrrolidine-2-carboxamide]	100 to 1000	1 to 10	100 to 1000
CC[C@H](NC(=O)[C@H](C)NC)C(=O)N1CCC[C@H]1C(=O)N[C@@H]1CCCc2c(OCCCCCOc3cccc4c3CCC[C@H]4NC(=O)[C@@H]3CCCN3C(=O)[C@H](CC)NC(=O)[C@H](C)NC)cccc21 [Compound I-D, (2S)-1-[(2S)-2-[(2S)-2-(methylamino)propanamido]butanoyl]-N-[(1R)-5-[(5-[[(5R)-5-[(2S)-1-[(2S)-2-[(2S)-2-(methylamino)propanamido]butanoyl]pyrrolidine-2-amido]-5,6,7,8-tetrahydronaphthalen-1-yl]oxy]pentyl)oxy]-1,2,3,4-tetrahydronaphthalen-1-yl]pyrrolidine-2-carboxamide]	10 to 100	1 to 10	1 to 10
CC[C@H](NC(=O)[C@H](C)NC)C(=O)N1CCC[C@H]1C(=O)N[C@@H]1CCCc2c(Oc3cccc4c3CCC[C@H]4NC(=O)[C@@H]3CCCN3C(=O)[C@H](CC)NC(=O)[C@H](C)NC)cccc21 [Compound X-A]	10 to 100	1 to 10	10 to 100
CN[C@@H](C)C(=O)N[C@H](C(=O)N1CCC[C@H]1C(=O)N[C@@H]1CCCc2c(Nc3cccc4c3CCC[C@H]4NC(=O)[C@@H]3CCCN3C(=O)[C@@H](NC(=O)[C@H](C)NC)C3CCOCC3)cccc21)C1CCOCC1 [Compound VI-A, (S)-1-((S)-2-((S)-2-(methylamino)propanamido)-2-(tetrahydro-2H-pyran-4-yl)acetyl)-N—((R)-5-(((R)-5-((S)-1-((S)-2-((S)-2-(methylamino)propanamido)-2-(tetrahydro-2H-pyran-4-yl)acetyl)pyrrolidine-2-carboxamido)-5,6,7,8-tetrahydronaphthalen-1-yl)amino)-1,2,3,4-tetrahydronaphthalen-1-yl)pyrrolidine-2-carboxamide]	10 to 100	1 to 10	10 to 100
CN[C@@H](C)C(=O)N[C@H](C(=O)N1CCC[C@H]1C(=O)N[C@@H]1CCCc2c(NC(=O)c3cccc4c3CCC[C@H]4NC(=O)[C@@H]3CCCN3C(=O)[C@@H](NC(=O)[C@H](C)NC)C(C)C)cccc21)C(C)C [VII-A, (2S)-1-[(2S)-3-methyl-2-[(2S)-2-(methylamino)propanamido]butanoyl]-N-[(1R)-5-[[(5R)-5-[(2S)-1-[(2S)-3-methyl-2-[(2S)-2-(methylamino)propanamido]butanoyl]pyrrolidine-2-amido]-5,6,7,8-tetrahydronaphthalen-1-yl]carbamoyl]-1,2,3,4-tetrahydronaphthalen-1-yl]pyrrolidine-2-carboxamide]	10 to 100	1 to 10	1 to 10
CN[C@@H](C)C(=O)N[C@H](C(=O)N1CCC[C@H]1C(=O)N[C@@H]1CCCc2c(-c3ccc(-c4ccc(-c5cccc6c5CCC[C@H]6NC(=O)[C@@H]5CCCN5C(=O)[C@@H](NC(=O)[C@H](C)NC)C5CCCCC5)cc4)cc3)cccc21)C1CCCCC1 [Compound III-G, (S)-1-((S)-2-cyclohexyl-2-((S)-2-(methylamino)propanamido)acetyl)-N—((R)-5-(4′-((R)-5-((S)-1-((S)-2-cyclohexyl-2-((S)-2-(methylamino)propanamido)acetyl)pyrrolidine-2-carboxamido)-5,6,7,8-tetrahydronaphthalen-1-yl)-[1,1′-biphenyl]-4-yl)-1,2,3,4-tetrahydronaphthalen-1-yl)pyrrolidine-2-carboxamide]	100 to 1000	1 to 10	10 to 100
CC[C@H](NC(=O)[C@H](C)NC)C(=O)N1CCC[C@H]1C(=O)N[C@@H]1CCCc2c(Nc3cccc4c3CCC[C@H]4NC(=O)[C@@H]3CCCN3C(=O)[C@H](CC)NC(=O)[C@H](C)NC)cccc21 [Compound VI-C, (2S,2'S)—N,N′-((1R,1′R)-azanediylbis(1,2,3,4-tetrahydronaphthalene-5,1-diyl))bis(1-((S)-2-((S)-2-(methylamino)propanamido)butanoyl)pyrrolidine-2-carboxamide)]	10 to 100	1 to 10	10 to 100
CN[C@@H](C)C(=O)NC(C(=O)N1CCC[C@H]1C(=O)N[C@@H]1CCCc2cc(N3CCN(c4ccc5c(c4)CCC[C@H]5NC(=O)[C@@H]4CCCN4C(=O)[C@@H](NC(=O)[C@H](C)NC)C4CCCCC4)CC3)ccc21)C1CCCCC1 (stereo partly drawn) [VIII-B, (2S)-1-[(2S)-2-cyclohexyl-2-[(2S)-2-(methylamino)propanamido]acetyl]-N-[1(1R)-6-[4-[(5R)-5-[(2S)-1-[(2S)-2-cyclohexyl-2-[(2S)-2-(methylamino)propanamido]acetyl]pyrrolidine-2-amido]-5,6,7,8-tetrahydronaphthalen-2-yl]piperazin-1-yl]-1,2,3,4-tetrahydronaphthalen-1-yl]pyrrolidine-2-carboxamide]	> 1000	10 to 100	100 to 1000
CC[C@H](NC(=O)[C@H](C)NC)C(=O)N1CCC[C@H]1C(=O)N[C@@H]1CCCc2c(-c3ccc(-c4cccc5c4CCC[C@H]5NC(=O)[C@@H]4CCCN4C(=O)[C@H](CC)NC(=O)[C@H](C)NC)cc3)cccc21 [III-I, (2S)-1-[(2S)-2-[(2S)-2-(methylamino)propanamido]butanoy]l-N-[(1R)-5-[4-[(5R)-5-[(2S)-1-[(2S)-2-[(2S)-2-(methylamino)propanamido]butanoyl]pyrrolidine-2-amido]-5,6,7,8-tetrahydronaphthalen-1-yl]phenyl]-1,2,3,4-tetrahydronaphthalen-1-yl]pyrrolidine-2-carboxamide]	10 to 100	1 to 10	10 to 100
CN[C@@H](C)C(=O)N[C@H](C(=O)N1CCC[C@H]1C(=O)N[C@@H]1CCCc2c(Nc3cccc4c3CCC[C@H]4NC(=O)[C@@H]3CCCN3C(=O)[C@@H](NC(=O)[C@H](C)NC)C(C)C)cccc21)C(C)C [Compound VI-B, (S)-1-(methyl-L-alanyl-L-valyl)-N—((R)-5-(((R)-5-((S)-1-(methyl-L-alanyl-L-valyl)pyrolidine-2-carboxamido)-5,6,7,8-tetrahydronaphthalen-1-yl)amino)-1,2,3,4-tetrahydronaphthalen-1-yl)pyrrolidine-2-carboxamide]	10 to 100	1 to 10	10 to 100
CC[C@H](NC(=O)[C@H](C)NC)C(=O)N1CCC[C@H]1C(=O)N[C@@H]1CCCc2c(-c3cccc4c3CCC[C@H]4NC(=O)[C@@H]3CCCN3C(=O)[C@H](CC)NC(=O)[C@H](C)NC)cccc21 [V-I, (2S)-1-[(2S)-2-[(2S)-2-(methylamino)propanamido]butanoyl]-N-[1(5R,5′R)-5′-[(2S)-1-[(2S)-2-[(2S)-2-(methylamino)propanamido]butanoyl]pyrrolidine-2-amido]-5H,5′H,6H,6′H,7H,7′H,8H,8′H-[1,1′-binaphthalen]-5-yl]pyrrolidine-2-carboxamide; Bis(Formic Acid)]	10 to 100	1 to 10	1 to 10
CN[C@@H](C)C(=O)N[C@H](C(=O)N1CCC[C@H]1C(=O)N[C@@H]1CCCc2c(-c3cccc4c3CCC[C@H]4NC(=O)[C@@H]3CCCN3C(=O)[C@@H](NC(=O)[C@H](C)NC)C(C)C)cccc21)C(C)C [Compound V-M, (2S)-1-[(2S)-3-methyl-2-[(2S)-2-(methylamino)propanamido]butanoyl]-N-[(5R,5′R)-5′-[(2S)-1-[(2S)-3-methy-2-[(2S)-2-(methylamino)propanamido]butanoyl]pyrolidine-2-amido]-5H,5′H,6H,6′H,7H,7′H,8H,8′H-[1,1′-binaphthalen]-5-yl]pyrrolidine-2-carboxamide]	10 to 100	1 to 10	1 to 10
